Experimental data from patent publication US6852695B2, “Orally active fraction of momordica charantia, active peptides thereof, and their use in the treatment of diabetes” (Theracos, Inc., priority 1997, dated 2005).

What was measured:
SD rats = assay: Comparison of MC6 (oral, i.v.) with i.v. r-insulin during glucose infusion in SD rats; type: in vivo, rat; settings: 500 μg MC6 i.v. or 150 mU r-insulin i.v. at 60 minutes following glucose infusion, FIG. 5
Procedure: In the next experiment, orally administered purified fraction MC6 (500 μg) was compared with i.v. injection of insulin (150 mU) in SD rats. Animals were divided into four groups and starved for three hours. Group 1 received PBS only; group 2 was given MC6 orally 60 minutes before glucose infusion; group 3 received 150 mU r-insulin (Humalin-R® of Novo-Nordisk) i.v. at 60 minutes following glucose infusion through jugular vein and group 4 received 500 μg MC6 in 1 ml PBS (i.v.) at 60 minutes following glucose infusion through jugular vein. In all cases, glucose infusion was at 18 mg/min/kg. Blood samples were collected from the carotid artery at different time intervals and quantitative plasma glucose levels were measured […].

normal rats = assay: Oral glucose tolerance test in normal rats; type: in vivo, rat; settings: compared to vehicle treated animals, FIG. 11
Excerpt: FIG. 11 represents the hypoglycemic activity of MC6.1 and its derivators, MC6.2 and 6.3 analogs in oral glucose tolerance test in normal rats.

Substance | hypoglycemic profile, systemic (i.v.) injection (SD rats) | lowering blood glucose in oral glucose tolerance test (normal rats)
r-insulin: r-insulin (Humalin-R of Novo-Nordisk), 150 mU i.v., comparator | identical hypoglycemic profile | –
6.3: 7-a.a. derivative of MC6.1: K-T-N-M-K-H-M (SEQ ID NO:03) (KTNMKHM) | – | effective in lowering blood glucose
